{"source": "patent US7718382B2", "about": "“Method for identifying compounds for treatment of pain” (Universite Laval, priority 2004, dated 2010)", "test_system": "pain hypersensitivity (allodynia) after chronic constriction injury to the sciatic nerve", "assay": "Von Frey 50% withdrawal threshold in rats with chronic constriction injury to the sciatic nerve (neuropathic pain)", "format": "in vivo, Sprague-Dawley rats", "settings": "allodynic rats, 500 ng single intrathecal injection", "method": "Eleven adult, Sprague-Dawley rats received an experimental chronic constriction injury to the sciatic nerve (Mosconi & Kruger, 1996, Pain 64:37-57). Pain hypersensitivity, indicative of neuropathic pain, increased progressively over a two week interval and was monitored using the Von Frey technique (Chaplan et al., 1994, J. Neurosci. Methods 53:55-63). Following the development of allodynia (characterized by a 50% withdrawal threshold (WD50) of ≦2.0 g), rats were administered 500 ng tricyclodecan-9-yl-xanthogenate by intrathecal catheter, the tricyclodecan-9-yl-xanthogenate was prepared in a solution of saline (0.9% NaCl) with 10% v/v dimethyl sulfoxide. Tricyclodecan-9-yl-xanthogenate is available from EMD Biosciences (a division of Calbiochem). A solution of saline (0.9% NaCl) with 10% v/v dimethyl sulfoxide was injected into control rats as a vehicle. The volume of the vehicle administered was the same as for the PLCγ inhibitor solution.\nSeven allodynic rats received single intrathecal injections of a vehicle, whereas 4 rats received single injections of tricyclodecan-9-yl-xanthogenate; the mean WD50 for both groups was 1.9±0.2 g prior to injections. […] This significant reduction of pain hypersensitivity persisted for greater than 6 hours.", "data": [{"smiles": "S=C(S)OC1CC2CC1C1CCCC21", "note": "(centres unmarked) [tricyclodecan-9-yl-xanthogenate]", "values": [{"measurement": "persistence of significant reduction of pain hypersensitivity", "result": "greater than 6 hours"}, {"measurement": "50% withdrawal threshold (WD50)", "setting": "4 hours post-injection, pre-injection WD50 1.9±0.2 g, vehicle 4.1±0.7 g, p<0.05", "result": "8.8 ± 2.1", "unit": "g"}]}]}
